Earlier results on one compound are cited in US20060193845A1, “Combination therapy for controlled carbohydrate digestion” (ELIXIR PHARMACEUTICALS, INC., priority 2004, published 2006).

Take `OCCN1C[C@H](O)[C@@H](O)[C@H](O)[C@H]1CO` [Miglitol, 3,4,5-piperidinetriol, 1-(2-hydroxyethyl)-2-(hydroxymethyl)-, [2R-(2α,3β,4α,5β)]]: the solubility in water result is given as “soluble”.
